Results: patent US20210330744A1, “Methods and Compositions for Treating Neurodegeneration and Fibrosis” (Temple University-Of The Commonwealth System of Higher …, priority 2017, published 2021)

Assays:
mtCU = target: T1, mtCU (Mus musculus, UniProt Q3UMR5+Q8VCX5); assay: Evaluation of mCa2+ uptake in permeabilized MEFs (Fura-2, Hill fit); format: cell-based
T1 construct: After treating wildtype (WT) MEFs with TGFβ for 12 hours, fibroblasts were permeabilized with digitonin; endogenous in cells; host or cells: wild-type (C57/BL6) mouse embryonic fibroblasts, digitonin-permeabilized, with or without 12 h TGFβ
Procedure: Before permeabilization, MEFs were washed in extracellular-like Ca^2+-free buffer (120 mM NaCl, 5 mM KCl, 1 mM KH2PO4, 0.2 mM MgCl2, 0.1 mM EGTA, 20 mM HEPEs-NaOH, pH 7.4). MEFs (1.5 million) were then transferred to intracellular-like medium (ICM) (120 mM KCl, 10 mM NaCl, 1 mM KH2PO4, 20 mM HEPES-Tris, protease inhibitors, 5 mM succinate, 2 μM thapsigargin, 40 μg ml^−1 digitonin, 10 μM CGP-37157 (NCLX inhibitor), pH 7.2). ICM was cleared with Chelex 100 to remove trace Ca^2+. MEFs were gently stirred and 1 μM Fura-2 was added to monitor extra-mitochondrial Ca^2+. At 20 seconds, JC-1 was added to monitor Δψ. Fluorescence signals were monitored in a temperature controlled (37° C.) multi-wavelength-excitation/dual-wavelength-emission spectrofluorometer (Delta RAM, Photon Technology Int.) using 490-nm excitation (ex)/535-nm emission (em) for the JC-1 monomer, 570-nm ex/595-nm em for the J-aggregate of JC-1, and 340- and 380-nm ex/510-nm em for Fura-2. […]
To quantify actual Ca^2+ content, a standard curve of Ca^2+ binding Fura-2 was generated from serial diluted Ca^2+ standards (0.01-120 μM) in ICM. Fura-2 fluorescence ratio was converted to [Ca^2+] by the following equation: [Ca^2+]=Kd*(R−Rmin)/(Rmax−R)*Sf2/Sb2. (Rmin (ratio in 0-Ca^2+)=1.341; Rmax (ratio at saturation)=27.915; Sf2 (380/510 reading in 0-Ca^2+)=15822.14; Sb2 (380/510 reading with Ca^2+ saturation)=1794.32). […]

MICU1 = assay: Western blot of mtCU components in WT MEFs; format: cell-based, mouse; conditions: for MICU1 expression: 12 hours after treatment
Procedure: (§1) Myofibroblast differentiation was induced using 10 ng ml^−1 recombinant mouse Transforming growth factor-β (TGFβ) or 10 μM Angiotensin II (AngII,). In all experiments, FBS was reduced to 1% 24 hours prior to and during treatment with TGFβ or AngII.
(§2) All protein samples were lysed by homogenization in RIPA buffer supplemented with phosphatase inhibitors and protease inhibitors. Samples were sonicated briefly and centrifuged at 5,000 g for 10 minutes. The supernatant was collected and used for further analysis. Protein amount was quantified using the Bradford Protein Assay and equal amounts of protein (10-50 μg) were run by electrophoresis on polyacrylamide Tris-glycine SDS gels. Gels were transferred to PVDF and membranes were blocked for 1 hour in Blocking Buffer followed by incubation with primary antibody overnight at 4° C. Membranes were washed in TBS-T 3 times for 5 minutes each and then incubated with secondary antibody for 1 hour at room temperature. After incubation with fluorescent secondary antibodies, membranes were washed in TB S-T 3 times for 5 minutes each and then imaged on a Licor Odyssey system. The following antibodies were used in the study: MCU (1:1,000), MCUb (1:250,), MICU1 (1:500,), MCUR1 (1:500), EMRE (1:250, Santa Cruz, sc-86337), VDAC (1:1,000), PDHE1α phospho 5293 (1:1,000), PDHE1α (1:1,000,), IDH3A (1:500), α-tubulin (1:1,000), ETC respiratory chain complexes (1:2,500), H3K4me3 (1:2,000), H3K9me3 (1:2,000), H3K27me3 (1:2,000), H3K4me2 (1:2,000), H3K9me2 (1:2,000), H3K27me2 (1:2,000), H3 (1:2000); and secondary antibodies: anti-mouse (1:12,000), anti-rabbit, (1:12,000), and anti-goat (1:12,000).

MEFs [1] = assay: ECAR and OCR measurements (Seahorse XF96) in MEFs; format: cell-based, mouse; conditions: for increase in glycolysis from baseline: at peak (TGFβ 48 hours, AngII ~12 hours)
Procedure: as §1
A Seahorse Bioscience XF96 extracellular flux analyzer was employed to measure extracellular acidification rates (ECAR) and oxygen consumption rates (OCR). ECAR was measured using the Glycolytic Stress Test Kit and OCR was measured using the Miro Stress Test Kit. To evaluate ECAR, 20,000 MEFs/well were plated in XF media pH 7.4 without supplementation. […] To evaluate OCR, 20,000 MEFs/well were plated in XF media pH 7.4 supplemented with 10 mM glucose and 1 mM sodium pyruvate. […] After each experiment, protein concentration was measured and wells were normalized using the Wave software.

MEFs [2] = assay: Metabolomic profiling of MEFs (CE-TOFMS, CE-QqQMS); format: cell-based, mouse
Procedure: Cells in a 10 cm dish were washed with 5% (w/w) mannitol (10mL for the first wash, 2 mL for the second wash) and extracted in 800 μL methanol plus 550 μL internal standard solution (Human Metabolome Technologies, HMT). Extracted solution was spun down at 2,300×g at 4° C. for 5 minutes. The supernatant was transferred into centrifugal filter units (HMT) and centrifuged at 9,100×g at 4° C. for ˜3.5 h until no liquid remained in the filter cup. Filtrate was frozen at −80° C. and shipped to HMT for analysis by CE-TOFMS and CE-QqQMS (Boston, Mass.). Filtrate was centrifugally concentrated and resuspended in 50 μl of ultrapure water immediately before the measurement.
Cationic metabolites were analyzed using an Agilent CE-TOFMS system Machine No. 3 and a fused silica capillary (i.d. 50 μm×80 cm) with Cation Buffer Solution as the electrolyte. The sample was injected at a pressure of 50 mbar for 10 seconds. The applied voltage was set at 27 kV. Electrospray ionization-mass spectrometry (ESI-MS) was conducted in the positive ion mode, and the capillary voltage was set at 4,000 V. The spectrometer was scanned from m/z 50 to 1,000.
Anionic metabolites were analyzed using an Agilent Capillary Electrophoresis System equipped with an Agilent 6460 TripleQuad LC/MS Machine No. QqQ3 and a fused silica capillary (i.d. 50 μm×80 cm) with Anion Buffer Solution as the electrolyte. The sample was injected at a pressure of 50 mbar for 25 seconds. The applied voltage was set at 30 kV. ESI-MS was conducted in the positive and negative ion mode, and the capillary voltage was set at 4,000 V for positive and 3, 500 V for negative mode.
Peaks detected in CE-TOFMs analysis were extracted using automatic integration software and those in CE-QqQMS analysis were extracted using automatic integration software in order to obtain peak information including m/z, migration time, and peak area. The peak area was then converted to relative peak area by the following equation: Relative peak area=Metabolite Peak Area/(Internal Standard Peak Area x Normalization Factor). The peaks were annotated based on the migration times in CE and m/z values determined by TOFMS. Putative metabolites were then assigned from HMT metabolite database on the basis of m/z and migration time. All metabolite concentrations were calculated by normalizing the peak area of each metabolite with respect to the area of the internal standard and by using standard curves, which were obtained by three-point calibrations. A heat map was generated using ClustVis. Unit variance was applied to rows. Rows were clustered using Manhattan distance and average linkage.

NFATc1 = assay: NFAT translocation assay; format: cell-based, mouse; conditions: control cells (Ad-βgal), 24 hours
Procedure: MEFs were plated on coated 35-mm dishes and infected with Ad-NFATc1-GFP for 24 hours at which time live-cell images were taken followed by treatment with 10 ng m1^1 TGFP or 10 μM AngII for 24 hours. For live-cell imaging, cells were placed in a 37° C. heated chamber on a Carl Zeiss Axio Observer Z1 fluorescent microscope. Prior to imaging, MEFs were incubated with Hoechst 33342 to demarcate cell nuclei. Images were acquired in the green channel (490ex/525em) and blue channel (350ex/460em). NFAT localization was quantified as the nuclear/cytoplasmic ratio of GFP fluorescence. More than 50 cells per dish were analyzed.

H3K27me2 [3] = assay: Western blot of methylated histone 3 lysine residues; format: cell-based, mouse; conditions: 0, 12 or 24 h treatment
Procedure: as §2

5-methylcytosine (5-mC) = assay: Global DNA methylation ELISA; format: cell-based, mouse; conditions: MEFs
Procedure: To extract genomic DNA, cells were collected and washed with PBS followed by 2 h incubation at 60° C. in DNA isolation buffer (0.5% SDS, 100 mM NaCl, 50 mM Tris pH 8, 3 mM EDTA, 0.1 mg/mL proteinase K). DNA was extracted using chloroform followed by ethanol precipitation and dissolved in double-distilled water. DNA methylation was quantified using the MethylFlash™ Methylated DNA Quantification Kit. 100 nanograms of input DNA was used per reaction. Absorbance at 450-nm was measured using a Tecan Infinite F50 microplate reader.

PDH E1α = assay: Western blot of phosphorylated PDH; format: cell-based, mouse; conditions: MEFs, 0, 24, 48, or 72 h
Procedure: as §2

H3K27me2 [4] = assay: H3K27me2 ChIP-qPCR at Postn and Pdgfra loci; format: cell-based, mouse; conditions: control cells (Ad-βgal), 12 hours
Procedure: ChIP was performed using the ChIP-IT High Sensitivity. Cells were fixed, lysed and sonicated for 30 minutes (30 seconds on, 30 seconds off) leading to chromatin fragments between 200 and 1200 base pairs. DNA-bound protein was immunoprecipitated using 2 μg anti-H3K27me2 or IgG. Following IP, cross-links were reversed, protein was removed, and DNA was purified. qPCR was performed with equal amounts of H3K27me2-immunoprecipitated sample, IgG-immunoprecipitated sample, and input sample. Values were normalized to input measurements and fold enrichment was calculated. qPCR primers (Table 4) were designed to target gene loci regions flanking or nearby myofibroblast transcription factor predicted binding sites according to Genomatrix-MatInspector Software analysis.

MEFs [5] = assay: α-SMA immunofluorescence (myofibroblast differentiation); format: cell-based, mouse; conditions: wildtype MEFs, 48 hours
Procedure: For experiments that required adenoviral gene transfer, MEFs were incubated in adenovirus for 24 hours at which time the media was changed. To knockout Mat, MEFs were transduced with adenovirus encoding Cre-recombinase (Ad-Cre) or βgalactosidase (Ad-(βgal) for 24 h and experiments were performed 5 days post-infection in order to ensure sufficient time for protein turnover. For experiments using adenovirus encoding Glyco-High, Glyco-Low, or mito-R-GECO1, cells were incubated for an additional 24 hours prior to the experiment. The following adenoviruses have previously been described: NFAT-cl-GFP, Glyco-High, Glyco-Low, mito-R-GECO1 (De Windt et al., 2000; Kurland et al., 1992; Salabei et al., 2016; Zhao et al., 2011). Glyco-High and Glyco-Low adenoviruses were made and purified by Vector Labs using cDNA for a rat liver PFKFB1 isoform of phosphofructokinase 2 (PFK2)/ fructose-2,6-bisphosphatase (FBP2). […]
MEFs were seeded on coated 35-mm dishes. […] Images were acquired in the red (590ex/617em) and blue (350ex/461em) channels. α-SMA expression was assessed by quantifying fluorescence intensity and the percentage α-SMA positive cells. More than 50 cells per dish were analyzed.

T1 sequence (Q3UMR5 50-350): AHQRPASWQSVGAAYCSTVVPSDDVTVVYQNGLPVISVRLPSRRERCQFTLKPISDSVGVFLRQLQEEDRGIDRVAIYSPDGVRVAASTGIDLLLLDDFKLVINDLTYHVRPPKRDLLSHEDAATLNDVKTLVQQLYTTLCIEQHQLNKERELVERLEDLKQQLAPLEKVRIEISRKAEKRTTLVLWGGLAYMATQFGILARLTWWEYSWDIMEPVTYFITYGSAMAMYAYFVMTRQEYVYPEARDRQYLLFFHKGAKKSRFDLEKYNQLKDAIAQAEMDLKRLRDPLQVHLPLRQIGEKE
T1 sequence (Q8VCX5 34-477): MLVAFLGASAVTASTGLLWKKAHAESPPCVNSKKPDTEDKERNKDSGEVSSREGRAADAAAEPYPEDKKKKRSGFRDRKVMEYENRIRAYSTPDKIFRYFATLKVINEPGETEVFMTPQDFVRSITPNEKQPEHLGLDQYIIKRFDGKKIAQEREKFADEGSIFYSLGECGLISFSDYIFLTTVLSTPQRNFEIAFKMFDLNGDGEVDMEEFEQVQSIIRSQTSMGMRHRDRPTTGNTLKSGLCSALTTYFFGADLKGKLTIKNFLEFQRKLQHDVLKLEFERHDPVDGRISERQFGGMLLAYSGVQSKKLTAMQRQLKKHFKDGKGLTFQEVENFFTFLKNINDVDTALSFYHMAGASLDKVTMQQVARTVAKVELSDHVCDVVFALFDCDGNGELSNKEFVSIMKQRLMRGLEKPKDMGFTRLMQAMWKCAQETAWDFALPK
T1 sequence (Q9DB10 48-107 partner): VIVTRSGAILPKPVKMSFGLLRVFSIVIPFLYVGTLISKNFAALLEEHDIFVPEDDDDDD
T1 sequence (Q8CD10 23-432 partner): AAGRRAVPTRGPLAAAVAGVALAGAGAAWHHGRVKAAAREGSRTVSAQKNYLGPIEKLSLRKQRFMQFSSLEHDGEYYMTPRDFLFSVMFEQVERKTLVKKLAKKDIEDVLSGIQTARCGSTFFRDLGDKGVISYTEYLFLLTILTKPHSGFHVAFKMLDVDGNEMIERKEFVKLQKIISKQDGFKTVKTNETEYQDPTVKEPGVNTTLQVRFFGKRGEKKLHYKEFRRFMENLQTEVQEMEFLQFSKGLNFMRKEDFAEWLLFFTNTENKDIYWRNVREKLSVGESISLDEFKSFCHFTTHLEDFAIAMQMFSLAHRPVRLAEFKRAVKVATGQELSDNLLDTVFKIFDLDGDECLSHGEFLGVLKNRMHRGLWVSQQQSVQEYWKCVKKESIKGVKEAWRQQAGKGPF

Compound | Hill coefficient of mCa2+ uptake dose response curve (mtCU; WT MEFs treated 12 hours, control cells 4.29) | mCa2+ uptake (mtCU; following delivery of ~0.5-2 μM [Ca2+], 12 hours treatment) | MICU1/MCU ratio (MICU1) | MICU1 expression (MICU1) | increase in glycolysis from baseline (MEFs [1]) | increase in basal respiration from baseline (MEFs [1]; peaking 48 hours after treatment) | α-ketoglutarate (αKG) (MEFs [2]; 12 h after treatment) | F-1,6-BP (MEFs [2]; 12 h post-treatment) | citrate levels (MEFs [2]; 12 h post-treatment) | pyruvate (MEFs [2]; control MEFs 12 h post-treatment, from 1000 at baseline) | glutamine (Gln) and glutamate (Glu) levels (MEFs [2]; control cells) | increase in αKG (MEFs [2]; treated fibroblasts) | nuclear translocation of NFATc1 (NFATc1) | dimethylation of H3K27 (H3K27me2) (H3K27me2 [3]) | global DNA methylation (5-methylcytosine (5-mC)) | ratio of p-PDH E1α/PDH (PDH E1α) | H3K27me2 enrichment at the Postn and Pdgfra loci (H3K27me2 [4]) | basal respiration (MEFs [1]) | percentage of α-SMA positive cells (MEFs [5])
TGFβ: recombinant mouse Transforming growth factor-β, pro-fibrotic agonist | 10.27 | decrease | rapidly increased | dramatic increase | > 400% | ~135% | increased | significantly increased | significantly reduced | 1600 pmol/million cells | decreased | ~2 fold | induced nuclear translocation of NFATc1 | progressive decrease | Slight, but non-significant, decreases | increased | lost | – | –
Angiotensin II (DRVYIHPF; Angiotensin-2; UniProt P01019 25-32, looked up) [AngII, pro-fibrotic agonist] | – | – | – | similarly large increase | 45% | – | – | – | – | – | – | – | induced nuclear translocation of NFATc1 | – | – | increased | – | slight decrease | –
COC(=O)CCC(=O)C(=O)OC [DM-αKG, dimethyl-αKG] | – | – | – | – | – | – | – | – | – | – | – | – | – | – | – | – | – | – | increased the percentage of α-SMA positive cells to the same extent as 48 hours of TGFβ treatment
